Data from US10323007B1, “N2N N4-disubstituted quinazoline-2,4-diamines and uses thereof” (University of South Florida, priority 2016, dated 2019).
Values after ≈ are worked out from the molar mass of the structure shown. Like-named read-outs stand apart in the source and are kept apart here.

Experiments:
Assay type in all cases: cell-based, Acinetobacter baumannii
A. baumannii 1403 = assay: MIC assay, strain 1403
Protocol: (§1) MIC and MBC assays were performed in this study as documented by us previously.^17,23,24,25 The A. baumannii strains used are detailed in Table 7.

A. baumannii 1646 [1] = assay: MIC assay, strain 1646
Protocol: as §1

A. baumannii 1649 = assay: MIC assay, strain 1649
Protocol: as §1

A. baumannii 1650 = assay: MIC assay, strain 1650
Protocol: as §1

A. baumannii 1651 = assay: MIC assay, strain 1651
Protocol: as §1

A. baumannii 1652 = assay: MIC assay, strain 1652
Protocol: as §1

A. baumannii = assay: MIC assay, A. baumannii isolates (strain not given); conditions: for MIC: Acinetobacter baumannii, strain not given, read-out: MIC
Protocol: as §1

A. baumannii 1646 [2] = assay: minimal bactericidal concentration (MBC) assay, strain 1646; conditions: isolate 1646
From the text: Lead quinazolines 4, 5, 26, 29, 27, and 30 were selected to be further evaluated for antimicrobial effects. The first assay utilized was a minimal bactericidal concentration (MBC) assay, to assess whether leads compounds were bacteriostatic or bactericidal. The six lead agents were screened to identify their MBC90 towards each of the six A. baumannii isolates used in the SAR studies (Table 8), however for simplicity only the representative data for isolate 1646 is detailed below (Table 6). […] Further to this, we were able to obtain complete eradication of bacterial growth for these two compounds at 1 μM for 24 and 5 μM for 25.
as §1

[3] = Acinetobacter baumannii, strain 1403, Tables 1, 3, 4, 5 and footnotes, read-out: 1403 MIC
[4] = Acinetobacter baumannii, strain 1646, Tables 1, 3, 4, 5 and footnotes, read-out: 1646 MIC
[5] = Acinetobacter baumannii, strain 1649, Tables 1, 3, 4, 5 and footnotes, read-out: 1649 MIC
[6] = Acinetobacter baumannii, strain 1650, Tables 1, 3, 4, 5 and footnotes, read-out: 1650 MIC
[7] = Acinetobacter baumannii, strain 1651, Tables 1, 3, 4, 5 and footnotes, read-out: 1651 MIC
[8] = Acinetobacter baumannii, strain 1652, Tables 1, 3, 4, 5 and footnotes, read-out: 1652 MIC
[9] = Acinetobacter baumannii, strain 1403, Table 2, read-out: 1403 MIC
[10] = Acinetobacter baumannii, strain 1646, Table 2, read-out: 1646 MIC
[11] = Acinetobacter baumannii, strain 1649, Table 2, read-out: 1649 MIC
[12] = Acinetobacter baumannii, strain 1650, Table 2, read-out: 1650 MIC
[13] = Acinetobacter baumannii, strain 1651, Table 2, read-out: 1651 MIC
[14] = Acinetobacter baumannii, strain 1652, Table 2, read-out: 1652 MIC
[15] = Acinetobacter baumannii, 1403, read-out: 1403 MIC
[16] = Acinetobacter baumannii, 1646, read-out: 1646 MIC
[17] = Acinetobacter baumannii, 1649, read-out: 1649 MIC
[18] = Acinetobacter baumannii, 1650, read-out: 1650 MIC
[19] = Acinetobacter baumannii, 1651, read-out: 1651 MIC
[20] = Acinetobacter baumannii, 1652, read-out: 1652 MIC

Row | Compound | MIC (A. baumannii 1403; [3]) [µM] | MIC (A. baumannii 1646 [1]; [4]) [µM] | MIC (A. baumannii 1649; [5]) [µM] | MIC (A. baumannii 1650; [6]) [µM] | MIC (A. baumannii 1651; [7]) [µM] | MIC (A. baumannii 1652; [8]) [µM] | also measured
1 | CNc1nc(NCc2ccccc2)c2ccc(Cl)cc2n1 [Compound 13, N^4-Benzyl-7-chloro-N^2-methylquinazoline-2,4-diamine] | > 50 | 4 (≈ 1.2 µg/mL) | > 50 | > 50 | > 50 | > 50 | 
2 | CNc1nc(NCc2ccccc2)c2cc(C)ccc2n1 [Compound 11, N^4-Benzyl-N^2,6-dimethylquinazoline-2,4-diamine] | > 50 | 6 (≈ 1.67 µg/mL) | > 50 | > 50 | 12 (≈ 3.34 µg/mL) | > 50 | 
3 | CNc1nc(NCc2ccccc2)c2cc(Br)ccc2n1 [Compound 10, N^4-Benzyl-6-bromo-N^2-methylquinazoline-2,4-diamine] | > 50 | 2 (≈ 0.686 µg/mL) | 50 (≈ 17.2 µg/mL) | > 50 | > 50 | > 50 | 
4 | CNc1nc(NCc2ccccc2)nc2ccccc12 [Compound 8, N^2-benzyl-N^4-methylquinazolin-2,4-diamine] |  |  |  |  |  |  | MIC (A. baumannii 1403; [9]): > 50 µM; MIC (A. baumannii 1646 [1]; [10]): 50 µM (≈ 13.2 µg/mL); MIC (A. baumannii 1649; [11]): > 50 µM; MIC (A. baumannii 1650; [12]): > 50 µM; MIC (A. baumannii 1651; [13]): > 50 µM; MIC (A. baumannii 1652; [14]): > 50 µM; MIC (A. baumannii): ≥ 50 µM
5 | CNc1nc(NCc2ccccc2)nc2ccc(-c3ccccc3)cc12 [Compound 31, N^2-Benzyl-N^4-methyl-6-phenylquinazoline-2,4-diamine] |  |  |  |  |  |  | MIC (A. baumannii 1403; [15]): 30 µM (≈ 10.2 µg/mL); MIC (A. baumannii 1646 [1]; [16]): 10 µM (≈ 3.4 µg/mL); MIC (A. baumannii 1649; [17]): 20 µM (≈ 6.81 µg/mL); MIC (A. baumannii 1650; [18]): 20 µM (≈ 6.81 µg/mL); MIC (A. baumannii 1651; [19]): 2 µM (≈ 0.681 µg/mL); MIC (A. baumannii 1652; [20]): 50 µM (≈ 17 µg/mL)
6 | CNc1nc(NCCc2ccccc2)nc2ccccc12 [Compound 16, N^4-Methyl-N^2-phenethylquinazoline-2,4-diamine] | > 50 | 12 (≈ 3.34 µg/mL) | > 50 | > 50 | > 50 | > 50 | fold more active than the benzyl analogue 8 (A. baumannii; MIC comparison): 4 fold
7 | CNc1nc(NCc2ccccc2)nc2cc(Br)ccc12 [Compound 6, N^2-Benzyl-7-bromo-N^4-methylquinazoline-2,4-diamine] |  |  |  |  |  |  | MIC (A. baumannii 1403; [9]): > 50 µM; MIC (A. baumannii 1646 [1]; [10]): 6 µM (≈ 2.06 µg/mL); MIC (A. baumannii 1649; [11]): 25 µM (≈ 8.58 µg/mL); MIC (A. baumannii 1650; [12]): > 50 µM; MIC (A. baumannii 1651; [13]): 10 µM (≈ 3.43 µg/mL); MIC (A. baumannii 1652; [14]): > 50 µM
8 | CNc1nc(NCc2ccccc2)nc2cc(Cl)ccc12 [Compound 2, N^2-Benzyl-7-chloro-N^4-methylquinazoline-2,4-diamine] | > 50 | 6 (≈ 1.79 µg/mL) | 30 (≈ 8.96 µg/mL) | > 50 | 10 (≈ 2.99 µg/mL) | 50 (≈ 14.9 µg/mL) | 
9 | CNc1nc(NCc2ccccc2)nc2ccc(Cl)cc12 [Compound 1, N^2-Benzyl-6-chloro-N^4-methylquinazoline-2,4-diamine] | 50 (≈ 14.9 µg/mL) | 2 (≈ 0.598 µg/mL) | 25 (≈ 7.47 µg/mL) | 15 (≈ 4.48 µg/mL) | 6 (≈ 1.79 µg/mL) | 20 (≈ 5.98 µg/mL) | 
10 | C=C(C)c1ccc2nc(NCc3ccccc3)nc(NC)c2c1 [Compound 24, N^2-Benzyl-N^4-methyl-6-(prop-1-en-2-yl)quinazoline-2,4-diamine] | > 50 | 2 (≈ 0.609 µg/mL) | 25 (≈ 7.61 µg/mL) | > 50 | 10 (≈ 3.04 µg/mL) | > 50 | concentration giving complete eradication of bacterial growth (A. baumannii 1646 [2]): 1 µM
11 | CNc1nc(NCc2ccccc2)nc2ccc(C3=CCCC3)cc12 [Compound 28, N^2-Benzyl-6-(cyclopent-1-en-1-yl)-N^4-methylquinazoline-2,4-diamine] | > 50 | 2 (≈ 0.661 µg/mL) | 50 (≈ 16.5 µg/mL) | > 50 | 30 (≈ 9.91 µg/mL) | > 50 | 
12 | C=Cc1ccc2nc(NCc3ccccc3)nc(NC)c2c1 [Compound 22, N^2-Benzyl-N^4-methyl-6-vinylquinazoline-2,4-diamine] | 25 (≈ 7.26 µg/mL) | 2 (≈ 0.581 µg/mL) | 10 (≈ 2.9 µg/mL) | 20 (≈ 5.81 µg/mL) | 25 (≈ 7.26 µg/mL) | 25 (≈ 7.26 µg/mL) | 
13 | CNc1nc(NCc2ccccc2)nc2cc(C)ccc12 [Compound 7, N^2-Benzyl-N^4,7-dimethylquinazoline-2,4-diamine] |  |  |  |  |  |  | MIC (A. baumannii 1403; [9]): 50 µM (≈ 13.9 µg/mL); MIC (A. baumannii 1646 [1]; [10]): 12 µM (≈ 3.34 µg/mL); MIC (A. baumannii 1649; [11]): 25 µM (≈ 6.96 µg/mL); MIC (A. baumannii 1650; [12]): 50 µM (≈ 13.9 µg/mL); MIC (A. baumannii 1651; [13]): 12 µM (≈ 3.34 µg/mL); MIC (A. baumannii 1652; [14]): 35 µM (≈ 9.74 µg/mL)
14 | CNc1nc(NCCc2ccccc2)nc2ccc(Cl)cc12 [Compound 17, 6-Chloro-N^4-methyl-N^2-phenethylquinazoline-2,4-diamine] | > 50 | 2 (≈ 0.626 µg/mL) | > 50 | > 50 | > 50 | > 50 | MIC (A. baumannii): 2 to 4 µM (≈ 0.626 to 1.25 µg/mL)
15 | CNc1nc(NCc2ccccc2)nc2ccc(-c3ccco3)cc12 [Compound 32, N^2-Benzyl-6-(furan-2-yl)-N^4-methylquinazoline-2,4-diamine] |  |  |  |  |  |  | MIC (A. baumannii 1403; [15]): 40 µM (≈ 13.2 µg/mL); MIC (A. baumannii 1646 [1]; [16]): 25 µM (≈ 8.26 µg/mL); MIC (A. baumannii 1649; [17]): > 50 µM; MIC (A. baumannii 1650; [18]): > 50 µM; MIC (A. baumannii 1651; [19]): 15 µM (≈ 4.96 µg/mL); MIC (A. baumannii 1652; [20]): > 50 µM
16 | CNc1nc(NCCc2ccccc2)nc2ccc(OC)cc12 [Compound 18, 6-Methoxy-N^4-methyl-N^2-phenethylquinazoline-2,4-diamine] | > 50 | 4 (≈ 1.23 µg/mL) | > 50 | > 50 | > 50 | > 50 | MIC (A. baumannii): 2 to 4 µM (≈ 0.617 to 1.23 µg/mL)

Continued, in another order:

Row | MIC (A. baumannii 1403; [3]) [µM] | MIC (A. baumannii 1646 [1]; [4]) [µM] | MIC (A. baumannii 1649; [5]) [µM] | MIC (A. baumannii 1650; [6]) [µM] | MIC (A. baumannii 1651; [7]) [µM] | MIC (A. baumannii 1652; [8]) [µM] | Compound | also measured
17 | > 50 | 4 (≈ 1.37 µg/mL) | > 50 | > 50 | > 50 | > 50 | CNc1nc(NCc2ccccc2)c2ccc(Br)cc2n1 [Compound 14, N^4-Benzyl-7-bromo-N^2-methylquinazoline-2,4-diamine] | 
18 | > 50 | 2 (≈ 0.715 µg/mL) | > 50 | > 50 | 10 (≈ 3.57 µg/mL) | > 50 | CNc1nc(NCCc2ccccc2)nc2ccc(Br)cc12 [Compound 19, 6-Bromo-N^4-methyl-N^2-phenethylquinazoline-2,4-diamine] | MIC (A. baumannii): 2 to 4 µM (≈ 0.715 to 1.43 µg/mL)
19 | > 50 | 2 (≈ 0.589 µg/mL) | 25 (≈ 7.36 µg/mL) | 50 (≈ 14.7 µg/mL) | 10 (≈ 2.94 µg/mL) | 30 (≈ 8.83 µg/mL) | CNc1nc(NCc2ccccc2)nc2ccc(OC)cc12 [Compound 3, N^2-Benzyl-6-methoxy-N^4-methylquinazoline-2,4-diamine] | 
20 | 30 (≈ 8.77 µg/mL) | 2 (≈ 0.585 µg/mL) | 10 (≈ 2.92 µg/mL) | 30 (≈ 8.77 µg/mL) | 2 (≈ 0.585 µg/mL) | 30 (≈ 8.77 µg/mL) | CCc1ccc2nc(NCc3ccccc3)nc(NC)c2c1 [Compound 23, N^2-Benzyl-6-ethyl-N^4-methylquinazoline-2,4-diamine] | 
21 | > 50 | 2 (≈ 0.585 µg/mL) | > 50 | > 50 | 10 (≈ 2.92 µg/mL) | > 50 | CNc1nc(NCCc2ccccc2)nc2ccc(C)cc12 [Compound 20, N^4,6-Dimethyl-N^2-phenethylquinazoline-2,4-diamine] | MIC (A. baumannii): 2 to 4 µM (≈ 0.585 to 1.17 µg/mL)
22 | > 50 | 6 (≈ 1.77 µg/mL) | > 50 | > 50 | 8 (≈ 2.35 µg/mL) | > 50 | CNc1nc(NCc2ccccc2)c2cc(OC)ccc2n1 [Compound 12, N^4-Benzyl-6-methoxy-N^2-methylquinazoline-2,4-diamine] | 
23 | > 50 | 12 (≈ 3.34 µg/mL) | > 50 | > 50 | > 50 | > 50 | CNc1nc(NCc2ccccc2)c2ccc(C)cc2n1 [Compound 15, N^4-Benzyl-N^2,7-dimethylquinazoline-2,4-diamine] | 
24 | > 50 | 4 (≈ 1.2 µg/mL) | 50 (≈ 14.9 µg/mL) | 50 (≈ 14.9 µg/mL) | 6 (≈ 1.79 µg/mL) | > 50 | CNc1nc(NCc2ccccc2)c2cc(Cl)ccc2n1 [Compound 9, N^4-Benzyl-6-chloro-N^2-methylquinazoline-2,4-diamine] | 
